# Measurements taken from publication PMC13266999, “Designing Antibiotics with Inherent Resistance to Efflux as a Strategy to Revive Discovery against Multidrug-Resistant Pathogens” (Journal of Medicinal Chemistry, 2026).
# Several values for one entry are separate records, joined by “and”; a condition that tells them apart may be missing. Identical values can stand only once. Like-named read-outs stand apart in the source and are kept apart here.
# Assays:
# [1] = test system: Pseudomonas aeruginosa; assay: MIC (microbroth dilution); type: cell-based; settings: for MIC50: in the presence of PMBN, n = 7 strains
# Summary of the method: (§1)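 Broth microdilution MICs were run in tryptic soy broth, or for Streptococcus spp. in cation-adjusted Mueller Hinton broth with 2.5% lysed horse blood, using overnight stationary-phase cultures back-diluted. MIC was the lowest concentration with no visible growth, with OD600 also read. Some MICs included PMBN at 30 μg/mL final.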
# [2] = test system: S. dysgalactiae; assay: MIC (microbroth dilution); type: cell-based; settings: for MIC: Streptococcus dysgalactiae
# Summary of the method: as §1
# [3] = test system: S. pyogenes; assay: MIC (microbroth dilution); type: cell-based, Streptococcus pyogenes; settings: for MIC: Streptococcus pyogenes
# Description: All bacteria were maintained on tryptic soy agar (TSA), except Streptococcus spp., which were maintained on Columbia agar plates containing 5% horse blood. All bacterial assays were carried out in tryptic soy broth (TSB), except for Streptococcus spp. which were grown in cation-adjusted Mueller Hinton broth containing 2.5% lysed horse blood. Bacteria were grown to stationary phase in liquid culture overnight, with shaking at 200 rpm, before being back diluted to the relevant starting concentration for each assay below. MICs were measured by the microbroth dilution method. […] Absorbance at OD600 was read on a CLARIOstar spectrophotometer (BMG Labtech) and the MIC was defined as the minimum concentration of compound where no visible growth was detected. The compounds were prepared as a DMSO stock and equivalent concentrations of DMSO had no effect on bacterial growth. MICs were also performed in the presence of the outer membrane permeator, polymyxin b nonapeptide (PMBN) following the same MIC method but with the following variation. The 2-fold dilution series of compound was prepared as above, then 50 μL of PMBN at a final concentration of 30 μg/mL was added to relevant wells, while 50 μL/well of blank media was added to the remaining wells. Bacteria were then added at 50 μL/well for a starting concentration as above. Thirty μg/mL of PMBN had no effect on bacterial growth. The MICs were read and defined as above. All animal procedures were performed by the contract research organization Pharmacology Discovery Services Taiwan in accordance with the Guide for the Care and Use of Laboratory Animals. The procedures were approved by the Institutional Ethics Committee of Pharmacology Discovery Services Taiwan, Ltd. (approval no. AB127662), in compliance with animal welfare legislation in Taiwan.
# [4] = test system: K. pneumoniae; assay: Mutation frequency and agar MIC; type: cell-based; settings: M6
# [5] = Kinetic aqueous solubility; type: physicochemical; settings: phosphate-buffered saline with 2% DMSO, pH 7.4, aqueous buffer, kinetic from dmso stock
# Description: Kinetic aqueous solubility was determined using a standard LC-UV/MS-based assay. Test compounds were prepared from 10 mM DMSO stock solutions and diluted to a nominal concentration of 200 μM in phosphate-buffered saline (PBS, pH 7.4) containing 2% DMSO. Parallel dilutions in DMSO were used as reference standards. Samples were equilibrated at room temperature for 2 h with shaking, then filtered, and the filtrates were analyzed by LC-UV with mass spectrometric confirmation of the analyte peak. Solubility was determined by comparing the UV peak area of the PBS filtrate with those of the DMSO reference standards. The effective range of the assay was 10–200 μM.
# [6] = Plasma protein binding (RED); type: in vitro ADME; settings: pH 7.4
# Description: Plasma protein binding was measured using a Rapid Equilibrium Dialysis (RED) assay. Test compounds and control compounds were added to plasma at 10 μM and dialyzed against phosphate-buffered saline (PBS, pH 7.4) for 4 h at 37 °C. […] The percentage of drug bound to plasma proteins was calculated by comparing the analyte response in the plasma compartment with that in the buffer compartment.
# [7] = in vivo; settings: male, mouse, po
# [8] = biological target: CYP1A (Homo sapiens, UniProt P05177); assay: CYP inhibition; settings: human liver microsomes, probe phenacetin, HLM, phenacetin substrate
# Description: (§2) Cytochrome P450 inhibition was assessed in vitro using human recombinant enzymes in microsomal preparations. […] Enzyme activity was quantified by monitoring formation of substrate-specific metabolites, and percent inhibition was calculated relative to vehicle control.
# [9] = biological target: CYP2C8 (Homo sapiens, UniProt P10632); assay: CYP inhibition; settings: HLM, amodiaquine substrate
# Description: as §2
# [10] = biological target: CYP2C9 (Homo sapiens, UniProt P11712); assay: CYP inhibition; settings: HLM, diclofenac substrate
# Description: as §2
# [11] = biological target: CYP2D6 (Homo sapiens, UniProt P10635); assay: CYP inhibition; settings: HLM, dextromethorphan substrate, 10 μM
# Description: as §2
# [12] = Murine thigh infection model; settings: oral 50 mg/kg at 2, 8, and 14 h postinfection, at 26 h
# [13] = test system: E. faecium; assay: Mutation frequency and agar MIC; type: cell-based; settings: NCTC 12204
# [14] = reported values; cited from earlier work
# [15] = Pseudomonas aeruginosa, CFL 004 CRCN, read-out: MIC
# 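For MTD in this document: male ICR mice given oral doses under a stepwise escalation scheme to find the highest tolerated dose.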
# CYP2D6, sequence (P10635 whole entry): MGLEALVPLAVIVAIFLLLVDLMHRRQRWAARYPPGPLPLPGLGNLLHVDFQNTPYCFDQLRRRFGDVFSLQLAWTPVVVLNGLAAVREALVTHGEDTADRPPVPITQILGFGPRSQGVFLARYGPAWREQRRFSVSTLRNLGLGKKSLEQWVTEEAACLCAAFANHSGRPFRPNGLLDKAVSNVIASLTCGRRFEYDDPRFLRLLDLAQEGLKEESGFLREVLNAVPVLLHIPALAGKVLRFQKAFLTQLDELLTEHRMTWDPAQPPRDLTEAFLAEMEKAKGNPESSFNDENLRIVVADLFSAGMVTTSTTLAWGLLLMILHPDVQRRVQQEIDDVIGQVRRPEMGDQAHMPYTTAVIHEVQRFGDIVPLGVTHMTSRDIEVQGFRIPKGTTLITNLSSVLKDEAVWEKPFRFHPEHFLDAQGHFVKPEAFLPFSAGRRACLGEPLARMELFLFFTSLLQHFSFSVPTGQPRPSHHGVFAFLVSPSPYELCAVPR
# CYP2C8, sequence (P10632 whole entry): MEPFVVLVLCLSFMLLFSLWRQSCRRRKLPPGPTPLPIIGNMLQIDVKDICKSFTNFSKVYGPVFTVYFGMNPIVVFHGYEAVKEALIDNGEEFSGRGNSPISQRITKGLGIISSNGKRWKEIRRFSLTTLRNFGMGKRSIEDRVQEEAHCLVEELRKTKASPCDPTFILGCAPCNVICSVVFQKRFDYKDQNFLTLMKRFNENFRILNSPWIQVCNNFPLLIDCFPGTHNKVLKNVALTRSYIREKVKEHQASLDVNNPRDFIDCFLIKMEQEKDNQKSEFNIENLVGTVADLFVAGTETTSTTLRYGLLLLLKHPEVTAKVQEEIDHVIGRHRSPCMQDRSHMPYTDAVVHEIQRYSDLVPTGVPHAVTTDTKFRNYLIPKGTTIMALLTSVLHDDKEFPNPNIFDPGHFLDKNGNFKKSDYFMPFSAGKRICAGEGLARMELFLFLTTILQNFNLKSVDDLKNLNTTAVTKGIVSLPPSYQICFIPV
# CYP2C9, sequence (P11712 whole entry): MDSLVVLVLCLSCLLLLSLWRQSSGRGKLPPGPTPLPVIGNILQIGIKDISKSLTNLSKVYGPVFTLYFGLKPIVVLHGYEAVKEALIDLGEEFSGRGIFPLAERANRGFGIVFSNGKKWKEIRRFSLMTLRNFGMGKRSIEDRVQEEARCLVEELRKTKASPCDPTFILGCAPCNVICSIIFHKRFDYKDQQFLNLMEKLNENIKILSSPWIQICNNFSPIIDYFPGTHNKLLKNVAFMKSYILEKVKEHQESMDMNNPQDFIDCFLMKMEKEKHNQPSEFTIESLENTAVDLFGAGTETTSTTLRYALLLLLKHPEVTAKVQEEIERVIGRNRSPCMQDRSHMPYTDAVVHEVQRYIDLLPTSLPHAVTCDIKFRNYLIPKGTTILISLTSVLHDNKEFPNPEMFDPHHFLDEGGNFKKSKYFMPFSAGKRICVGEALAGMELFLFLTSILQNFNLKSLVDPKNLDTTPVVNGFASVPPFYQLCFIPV
# CYP1A, sequence (P05177 whole entry): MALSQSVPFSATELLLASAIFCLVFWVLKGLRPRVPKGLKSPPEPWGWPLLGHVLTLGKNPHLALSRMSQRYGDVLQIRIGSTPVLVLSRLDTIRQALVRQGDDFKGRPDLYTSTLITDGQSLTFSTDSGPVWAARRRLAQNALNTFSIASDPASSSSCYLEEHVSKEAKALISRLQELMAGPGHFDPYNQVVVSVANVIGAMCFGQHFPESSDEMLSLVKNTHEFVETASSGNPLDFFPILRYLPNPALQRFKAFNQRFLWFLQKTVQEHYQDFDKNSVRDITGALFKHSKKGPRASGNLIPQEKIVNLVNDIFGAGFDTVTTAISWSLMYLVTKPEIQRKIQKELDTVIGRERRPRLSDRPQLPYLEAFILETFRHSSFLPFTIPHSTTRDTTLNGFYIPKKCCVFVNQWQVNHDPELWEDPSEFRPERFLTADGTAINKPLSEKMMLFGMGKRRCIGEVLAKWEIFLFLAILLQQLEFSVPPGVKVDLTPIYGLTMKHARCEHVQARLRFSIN
smiles,measurement,setting,value
"C[C@H]1COc2c(N3CC[C@@H](Nc4ncccn4)C3)c(F)cc3c(=O)c(C(=O)O)cn1c23 [Compound 46, (S)-9-Fluoro-3-methyl-7-oxo-10-((R)-3-(pyrimidin-2-ylamino)pyrrolidin-1-yl)-2,3-dihydro-7H-[1,4]oxazino[2,3,4-ij]quinoline-6-carboxylic acid]",MIC,"[1]; CAS4, + PMBN",0.06 µg/mL
same,MIC,"[1]; CFL 004 CRCN, + PMBN",8 µg/mL
same,MIC,"[1]; GH12, + PMBN",0.5 µg/mL
same,MIC,"[1]; NCTC 10662, + PMBN",≤ 0.03 µg/mL
same,MIC,"[1]; NCTC 12903, + PMBN",≤ 0.03 µg/mL
same,MIC,"[1]; NCTC 13359, + PMBN",0.06 µg/mL
same,MIC,"[1]; PAO1 ΔmexB, + PMBN",≤ 0.03 µg/mL
same,MIC,"[1]; Pseudomonas aeruginosa, CAS4, read-out: MIC",8 µg/mL
same,MIC,"[1]; Pseudomonas aeruginosa, GH12, read-out: MIC",> 32 µg/mL
same,MIC,"[1]; Pseudomonas aeruginosa, GH100, read-out: MIC",1 to 4 µg/mL
same,MIC,"[1]; Pseudomonas aeruginosa, NCTC10662, NCTC 10662, read-out: MIC",8 µg/mL
same,MIC,"[1]; Pseudomonas aeruginosa, NCTC12903, NCTC 12903, read-out: MIC",8 µg/mL
same,MIC,"[1]; Pseudomonas aeruginosa, NCTC13359, NCTC 13359, read-out: MIC",4 to 32 µg/mL
same,MIC,"[1]; Pseudomonas aeruginosa, PAO1, PAO1, read-out: MIC",4 to 8 µg/mL
same,MIC,[1]; [15],> 32 µg/mL
same,MIC50,[1]; Pseudomonas aeruginosa,0.06 µg/mL
same,MIC,"[2]; 10238, read-out: MIC",0.06 to 0.25 µg/mL
same,MIC,"[2]; 13759, read-out: MIC",0.06 µg/mL
same,MIC,"[2]; 13762, read-out: MIC",0.06 µg/mL
same,MIC,[2]; 81251,0.125 µg/mL
same,MIC,[2]; 81553,0.125 µg/mL
same,MIC,[2]; 84143,0.06 to 0.125 µg/mL
same,MIC,[2]; 84557,0.03 to 0.125 µg/mL
same,MIC,[2]; 84574,0.06 to 0.125 µg/mL
same,MIC range,[2]; n = 8,0.0625 to 0.125 µg/mL
same,MIC,"[3]; 8198, read-out: MIC",≤ 0.03 µg/mL
same,MIC,[3]; 12048,0.03 to 0.125 µg/mL
same,MIC,"[3]; 13736, read-out: MIC",0.06 µg/mL
same,MIC,[3]; 13737,0.125 µg/mL
same,MIC,[3]; 13738,0.125 µg/mL
same,MIC,[3]; 80661,0.06 to 0.125 µg/mL
same,MIC,[3]; 81017,0.125 µg/mL
same,MIC,"[3]; 82434, read-out: MIC",0.06 µg/mL
same,MIC,"[3]; 82896, read-out: MIC",0.06 µg/mL
same,MIC,[3]; 83581,0.06 to 0.125 µg/mL
same,MIC,"[3]; 84285, read-out: MIC",0.06 µg/mL
same,MIC,[3]; 86519,0.125 µg/mL
same,MIC range,[3]; n = 12 isolates,0.06 to 0.125 µg/mL
same,Agar MIC,[4],0.5 µg/mL
same,solubility at 2 h,[5],183 µM
same,"fraction unbound at 4 h, 10 μM",[6],0.42
same,MTD at 72 h,[7]; ICR,≥ 400 mg/kg
same,inhibition at 10 µM,[8],9.6%
same,CYP2C8 inhibition,[9]; 10 μM,3.1%
same,CYP2C9 inhibition,[10]; 10 μM,12.8%
same,CYP2D6 inhibition,[11],0.0%
same,bacterial counts in thigh,[12],3.19 log10 CFU/g
same,reduction relative to vehicle,[12]; 50 mg/kg,5.17 log10 CFU/g and > 4 log10 CFU/g
"Cc1cc(C)nc(N[C@@H]2CCN(c3c(F)cc4c(=O)c(C(=O)O)cn5c4c3OC[C@@H]5C)C2)n1 [Compound 50, (S)-10-((R)-3-((4,6-Dimethylpyrimidin-2-yl)amino)pyrrolidin-1-yl)-9-fluoro-3-methyl-7-oxo-2,3-dihydro-7H-[1,4]oxazino[2,3,4-ij]quinoline-6-carboxylic acid]",MIC,"[2]; 10238, read-out: MIC",≤ 0.03 µg/mL
same,MIC,"[2]; 13759, read-out: MIC",≤ 0.03 µg/mL
same,MIC,"[2]; 13762, read-out: MIC",≤ 0.03 µg/mL
same,MIC,"[2]; 81251, read-out: MIC",≤ 0.03 µg/mL
same,MIC,[2]; 81553,0.125 µg/mL
same,MIC,"[2]; 84143, read-out: MIC",0.06 µg/mL
same,MIC,"[2]; 84557, read-out: MIC",≤ 0.03 µg/mL
same,MIC,"[2]; 84574, read-out: MIC",0.06 µg/mL
same,MIC,"[2]; n = 8, read-out: modal MIC",≤ 0.03 µg/mL
same,MIC range,[2]; n = 8,≤ 0.03 to 0.125 µg/mL
same,MIC,"[3]; 8198, read-out: MIC",≤ 0.03 µg/mL
same,MIC,"[3]; 12048, read-out: MIC",≤ 0.03 µg/mL
same,MIC,"[3]; 13736, read-out: MIC",≤ 0.03 µg/mL
same,MIC,[3]; 13737,0.125 µg/mL
same,MIC,[3]; 13738,0.125 µg/mL
same,MIC,"[3]; 80661, read-out: MIC",≤ 0.03 µg/mL
same,MIC,"[3]; 81017, read-out: MIC",0.06 µg/mL
same,MIC,"[3]; 82434, read-out: MIC",≤ 0.03 µg/mL
same,MIC,"[3]; 82896, read-out: MIC",≤ 0.03 µg/mL
same,MIC,"[3]; 83581, read-out: MIC",≤ 0.03 µg/mL
same,MIC,"[3]; 84285, read-out: MIC",≤ 0.03 µg/mL
same,MIC,"[3]; 86519, read-out: MIC",0.06 µg/mL
same,MIC,"[3]; ATCC14289, ATCC 14289",0.125 µg/mL
same,MIC,"[3]; ATCC19615, ATCC 19615",0.125 µg/mL
same,MIC,"[3]; n = 12 isolates, read-out: modal MIC",≤ 0.03 µg/mL
same,MIC range,[3]; n = 12 isolates,≤ 0.03 to 0.125 µg/mL
same,Agar MIC,[13],2 µg/mL
same,solubility at 2 h,[5],156 µM
same,"fraction unbound at 4 h, 10 μM",[6],0.28
same,MTD at 72 h,[7],≥ 400 mg/kg
same,inhibition at 10 µM,[8],16%
same,inhibition at 10 µM,"[9]; human, human liver microsomes, probe amodiaquine, CYP2C8 inhibition",13.4%
same,inhibition at 10 µM,"[10]; human, human liver microsomes, probe diclofenac, CYP2C9 inhibition",16.8%
same,CYP2D6 inhibition,[11],3.804% and < 10%
"C[C@H]1COc2c(N3CCN(C)CC3)c(F)cc3c(=O)c(C(=O)O)cn1c23 [Levofloxacin, (S)-9-Fluoro-3-methyl-10-(4-methylpiperazin-1-yl)-7-oxo-2,3-dihydro-7H-[1,4]oxazino[2,3,4-ij]quinoline-6-carboxylic acid, reference compound]",MIC,"[1]; CAS4, + PMBN",≤ 0.125 µg/mL
same,MIC,"[1]; CFL 004 CRCN, + PMBN",16 µg/mL
same,MIC,"[1]; GH12, + PMBN",4 µg/mL
same,MIC,"[1]; NCTC 10662, + PMBN",≤ 0.125 µg/mL
same,MIC,"[1]; NCTC 12903, + PMBN",≤ 0.125 µg/mL
same,MIC,"[1]; NCTC 13359, + PMBN",0.25 µg/mL
same,MIC,"[1]; PAO1, + PMBN",0.125 µg/mL
same,MIC,"[1]; PAO1 ΔmexB, + PMBN",≤ 0.03 µg/mL
same,MIC,"[1]; Pseudomonas aeruginosa, CAS4",2 µg/mL
same,MIC,"[1]; Pseudomonas aeruginosa, GH12",64 µg/mL
same,MIC,"[1]; Pseudomonas aeruginosa, GH100",0.25 µg/mL
same,MIC,"[1]; Pseudomonas aeruginosa, NCTC10662, NCTC 10662",2 µg/mL
same,MIC,"[1]; Pseudomonas aeruginosa, NCTC12903, NCTC 12903",4 µg/mL
same,MIC,"[1]; Pseudomonas aeruginosa, NCTC13359, NCTC 13359",4 µg/mL
same,MIC,"[1]; Pseudomonas aeruginosa, PAO1",0.5 µg/mL
same,MIC,"[1]; Pseudomonas aeruginosa, PAO1, PAO1",2 µg/mL
same,MIC,[1]; [15],128 µg/mL
same,MIC50,[1]; Pseudomonas aeruginosa,0.125 µg/mL
same,Agar MIC,[13],1 µg/mL
same,Agar MIC,[4],0.03 µg/mL
same,plasma protein binding,[14],38%
same,bacterial counts in thigh,[12],3.28 log10 CFU/g
